Data: PubChem BioAssay AID180 (DTP/NCI, 2004)
Where “and” joins values, the source holds several entries; their conditions need not be identical. Equal values may be shown once.

Tested on: BDF1 mice, Adenocarcinoma 755 s.c., tumor weight T/C
Experiment: NCI In Vivo Anticancer Drug Screen. Data for tumor model Adenocarcinoma 755 (subcutaneous) in B6D2F1 (BDF1) mice
Details: endpoint: mean tumor weight, higher = larger tumour
How it was run: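 Readout: T/C, i.e. treated-group measurement over vehicle-control measurement. Endpoint is survival or tumor size in tumor-bearing mice given compound.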

[1] = dose: 25.0 mg/kg/injection, schedule: Q01DX011 (ip), vehicle: methylcellulose (MC)

Q: CN(C)C1C(=O)C(C(N)=O)=C(O)C2(O)C(=O)C3=C(O)c4c(O)cccc4C(C)(O)C3C(O)C12 (stereo not given) was tested. Which T/C (dose: 19.5 mg/kg/injection, schedule: Q01DX011 (ip), vehicle: carboxymethylcellulose (CMC)) did it give?
A: Its T/C is 78 % of control.

Q: And the T/C (dose: 19.86 mg/kg/injection, schedule: Q01DX011 (ip), vehicle: carboxymethylcellulose (CMC))?
A: Its T/C is 106 % of control.

Q: What about the T/C (dose: 31.25 mg/kg/injection, schedule: Q01DX011 (ip), vehicle: methylcellulose (MC)) of the same molecule?
A: Its T/C is 117 % of control.

Q: What about the T/C (dose: 39.0 mg/kg/injection, schedule: Q01DX011 (ip), vehicle: carboxymethylcellulose (CMC)) of the same molecule?
A: Its T/C is 91 % of control.

Q: And the T/C (dose: 50.0 mg/kg/injection, schedule: Q01DX011 (ip), vehicle: water)?
A: Its T/C is 81 % of control.

Q: What about the T/C (dose: 62.4 mg/kg/injection, schedule: Q01DX011 (ip), vehicle: carboxymethylcellulose (CMC)) of the same molecule?
A: Its T/C is 46 % of control.

Q: And the T/C (dose: 62.5 mg/kg/injection, schedule: Q01DX011 (ip), vehicle: methylcellulose (MC))?
A: The T/C was 69 % of control.

Q: And the T/C (dose: 63.56 mg/kg/injection, schedule: Q01DX011 (ip), vehicle: carboxymethylcellulose (CMC))?
A: The T/C was 119 % of control.

Q: What about the T/C (dose: 78.0 mg/kg/injection, schedule: Q01DX011 (ip), vehicle: carboxymethylcellulose (CMC)) of the same molecule?
A: Its T/C is 95 % of control and 110 % of control.

Q: What about the T/C (dose: 79.45 mg/kg/injection, schedule: Q01DX011 (ip), vehicle: carboxymethylcellulose (CMC)) of the same molecule?
A: The T/C was 92 % of control and 75 % of control and 87 % of control.

Q: And the T/C (dose: 100.0 mg/kg/injection, schedule: Q01DX011 (ip), vehicle: water)?
A: The T/C was 45 % of control.

Q: And the T/C (dose: 104.0 mg/kg/injection, schedule: Q01DX011 (ip), vehicle: carboxymethylcellulose (CMC))?
A: Its T/C is 65 % of control.

Q: And the T/C (dose: 105.93 mg/kg/injection, schedule: Q01DX011 (ip), vehicle: carboxymethylcellulose (CMC))?
A: Its T/C is 96 % of control and 87 % of control.

Q: What about the T/C (dose: 125.0 mg/kg/injection, schedule: Q01DX011 (ip), vehicle: methylcellulose (MC)) of the same molecule?
A: Its T/C is 73 % of control.

Q: What about the T/C (dose: 150.0 mg/kg/injection, schedule: Q01DX011 (ip), vehicle: water) of the same molecule?
A: The T/C was 14 % of control.

Q: For CCC1=C(c2cc(Cl)c3ccccc3c2OCC(=O)O)OC(CC)(C(=O)c2cc(Cl)c3ccccc3c2OCC(=O)O)CC1 (stereo not given), which T/C (dose: 30.0 mg/kg/injection, schedule: Q01DX011 (ip), vehicle: alkali diluted with saline) is on record?
A: Its T/C is 152 % of control.

Q: With N#[N+]c1cnc([O-])[nH]c1=O as the molecule, how does the T/C (dose: 1.25 mg/kg/injection, schedule: Q01DX011 (ip), vehicle: carboxymethylcellulose (CMC)) read?
A: Its T/C is 111 % of control.

Q: And the T/C (dose: 1.41 mg/kg/injection, schedule: Q01DX011 (ip), vehicle: carboxymethylcellulose (CMC))?
A: The T/C was 80 % of control.

Q: And the T/C (dose: 1.47 mg/kg/injection, schedule: Q01DX011 (ip), vehicle: carboxymethylcellulose (CMC))?
A: Its T/C is 116 % of control.

Q: What about the T/C (dose: 2.5 mg/kg/injection, schedule: Q01DX011 (ip), vehicle: carboxymethylcellulose (CMC)) of the same molecule?
A: The T/C was 53 % of control.

Q: What about the T/C (dose: 2.83 mg/kg/injection, schedule: Q01DX011 (ip), vehicle: carboxymethylcellulose (CMC)) of the same molecule?
A: Its T/C is 108 % of control.

Q: And the T/C (dose: 2.95 mg/kg/injection, schedule: Q01DX011 (ip), vehicle: carboxymethylcellulose (CMC))?
A: Its T/C is 98 % of control.

Q: And the T/C (dose: 5.0 mg/kg/injection, schedule: Q01DX011 (ip), vehicle: carboxymethylcellulose (CMC))?
A: The T/C was 39 % of control.

Q: And the T/C (dose: 5.65 mg/kg/injection, schedule: Q01DX011 (ip), vehicle: carboxymethylcellulose (CMC))?
A: Its T/C is 94 % of control.

Q: What about the T/C (dose: 5.9 mg/kg/injection, schedule: Q01DX011 (ip), vehicle: carboxymethylcellulose (CMC)) of the same molecule?
A: Its T/C is 76 % of control.

Q: And the T/C (dose: 11.3 mg/kg/injection, schedule: Q01DX011 (ip), vehicle: carboxymethylcellulose (CMC))?
A: The T/C was 49 % of control.

Q: What about the T/C (dose: 1170.0 micrograms/kg/injection, schedule: Q01DX011 (ip), vehicle: carboxymethylcellulose (CMC)) of the same molecule?
A: The T/C was 86 % of control.

Q: What about the T/C (dose: 2925.0 micrograms/kg/injection, schedule: Q01DX011 (ip), vehicle: carboxymethylcellulose (CMC)) of the same molecule?
A: The T/C was 78 % of control.

Q: How did the T/C (dose: 125.0 mg/kg/injection, schedule: Q01DX011 (ip), vehicle: saline) turn out when NC(CO)(CO)CO was run?
A: Its T/C is 72 % of control.

Q: And the T/C (dose: 250.0 mg/kg/injection, schedule: Q01DX011 (ip), vehicle: saline)?
A: The T/C was 69 % of control.

Q: And the T/C (dose: 500.0 mg/kg/injection, schedule: Q01DX011 (ip), vehicle: saline)?
A: Its T/C is 75 % of control.

Q: What about the T/C (dose: 1000.0 mg/kg/injection, schedule: Q01DX011 (ip), vehicle: saline) of the same molecule?
A: Its T/C is 84 % of control.

Q: Which T/C (dose: 0.38 mg/kg/injection, schedule: Q01DX011 (ip), vehicle: methylcellulose (MC)) does the source give for CC(C)Sc1nc(N)nc2c1ncn2C1OC(CO)C(O)C1O (stereo not given) here?
A: The T/C was 48 % of control.

Q: What about the T/C (dose: 0.75 mg/kg/injection, schedule: Q01DX011 (ip), vehicle: methylcellulose (MC)) of the same molecule?
A: The T/C was 60 % of control.

Q: And the T/C (dose: 1.5 mg/kg/injection, schedule: Q01DX011 (ip), vehicle: methylcellulose (MC))?
A: Its T/C is 40 % of control.

Q: What about the T/C (dose: 3.0 mg/kg/injection, schedule: Q01DX011 (ip), vehicle: methylcellulose (MC)) of the same molecule?
A: Its T/C is 36 % of control.

Q: And the T/C (dose: 3.1 mg/kg/injection, schedule: Q01DX011 (ip), vehicle: methylcellulose (MC))?
A: The T/C was 3 % of control.

Q: With CC1C[C@@H]2[C@H]([C@@H](O)C[C@@]3(C)[C@H]2CC[C@]3(O)C(=O)CF)[C@@]2(C)CCC(=O)C=C12 (stereo not given in full) as the molecule, how does the T/C (dose: 1.2 mg/kg/injection, schedule: Q01DX011 (sc), vehicle: steriod suspending solution) read?
A: Its T/C is 108 % of control.

Q: And the T/C (dose: 2.5 mg/kg/injection, schedule: Q01DX011 (sc), vehicle: steriod suspending solution)?
A: The T/C was 92 % of control.

Q: What about the T/C (dose: 8.0 mg/kg/injection, schedule: Q01DX011 (sc), vehicle: steriod suspending solution) of the same molecule?
A: Its T/C is 82 % of control.

Q: What about the T/C (dose: 10.0 mg/kg/injection, schedule: Q01DX011 (sc), vehicle: steriod suspending solution) of the same molecule?
A: The T/C was 35 % of control.

Q: What about the T/C (dose: 16.0 mg/kg/injection, schedule: Q01DX011 (sc), vehicle: steriod suspending solution) of the same molecule?
A: The T/C was 75 % of control.

Q: What about the T/C (dose: 20.0 mg/kg/injection, schedule: Q01DX011 (sc), vehicle: steriod suspending solution) of the same molecule?
A: Its T/C is 30 % of control.

Q: And the T/C (dose: 32.0 mg/kg/injection, schedule: Q01DX011 (sc), vehicle: steriod suspending solution)?
A: The T/C was 55 % of control.

Q: And the T/C (dose: 40.0 mg/kg/injection, schedule: Q01DX011 (sc), vehicle: steriod suspending solution)?
A: Its T/C is 13 % of control.

Q: And the T/C (dose: 170.0 mg/kg/injection, schedule: Q01DX011 (sc), vehicle: steriod suspending solution)?
A: Its T/C is 5 % of control and 10 % of control.

Q: What about the T/C (dose: 340.0 mg/kg/injection, schedule: Q01DX011 (sc), vehicle: steriod suspending solution) of the same molecule?
A: The T/C was 9 % of control and 13 % of control.

Q: Nc1nc(SCc2ccccc2Cl)c2ncn(C3CCCCC3)c2n1 was tested. Which T/C [1] did it give?
A: The T/C was 180 % of control.

Q: And the T/C (dose: 75.0 mg/kg/injection, schedule: Q01DX011 (ip), vehicle: methylcellulose (MC))?
A: Its T/C is 166 % of control.

Q: Fc1ccccc1CSc1ncnc2c1ncn2C1CCCO1 (stereo not given) was tested. Which T/C (dose: 3.4 mg/kg/injection, schedule: Q01DX011 (ip), vehicle: methylcellulose (MC)) did it give?
A: Its T/C is 82 % of control.

Q: What about the T/C (dose: 6.75 mg/kg/injection, schedule: Q01DX011 (ip), vehicle: methylcellulose (MC)) of the same molecule?
A: The T/C was 96 % of control.

Q: And the T/C (dose: 12.5 mg/kg/injection, schedule: Q01DX011 (ip), vehicle: methylcellulose (MC))?
A: The T/C was 26 % of control.

Q: And the T/C [1]?
A: Its T/C is 1 % of control and 15 % of control.

Q: What about the T/C (dose: 50.0 mg/kg/injection, schedule: Q01DX011 (ip), vehicle: methylcellulose (MC)) of the same molecule?
A: Its T/C is 1 % of control.

Q: CN(Cc1ccccc1)N=Nc1n[nH]nc1C(N)=O was tested. Which T/C (dose: 50.0 mg/kg/injection, schedule: Q01DX011 (ip), vehicle: carboxymethylcellulose (CMC)) did it give?
A: The T/C was 75 % of control.

Q: What about the T/C (dose: 100.0 mg/kg/injection, schedule: Q01DX011 (ip), vehicle: carboxymethylcellulose (CMC)) of the same molecule?
A: The T/C was 91 % of control.

Q: What about the T/C (dose: 200.0 mg/kg/injection, schedule: Q01DX011 (ip), vehicle: carboxymethylcellulose (CMC)) of the same molecule?
A: Its T/C is 56 % of control.

Q: What does the source list for Cn1cnc2c(ncn2C2OC(CO)C(O)C2O)c1=N (stereo not given)?
A: T/C (dose: 30.0 mg/kg/injection, schedule: Q01DX011 (ip), vehicle: saline): 118 % of control; T/C (dose: 120.0 mg/kg/injection, schedule: Q01DX011 (ip), vehicle: saline): 47 % of control; T/C (dose: 240.0 mg/kg/injection, schedule: Q01DX011 (ip), vehicle: saline): 74 % of control

Q: What does the source list for CCCC(=O)OCC1OC(n2cnc3c(=S)nc(N)[nH]c32)C(OC(=O)CCC)C1OC(=O)CCC (stereo not given)?
A: T/C (dose: 0.16 mg/kg/injection, schedule: Q01DX011 (ip), vehicle: saline): 57 % of control; T/C (dose: 0.38 mg/kg/injection, schedule: Q01DX011 (ip), vehicle: saline): 88 % of control; T/C (dose: 0.58 mg/kg/injection, schedule: Q01DX011 (ip), vehicle: saline): 82 % of control; T/C (dose: 1.3 mg/kg/injection, schedule: Q01DX011 (ip), vehicle: saline): 31 % of control; T/C (dose: 2.0 mg/kg/injection, schedule: Q01DX011 (ip), vehicle: saline): 18 % of control; T/C (dose: 3.0 mg/kg/injection, schedule: Q01DX011 (ip), vehicle: saline): 4 % of control; T/C (dose: 6.0 mg/kg/injection, schedule: Q01DX011 (ip), vehicle: carboxymethylcellulose (CMC)): 2 % of control and 11 % of control; T/C (dose: 12.0 mg/kg/injection, schedule: Q01DX011 (ip), vehicle: carboxymethylcellulose (CMC)): 2 % of control and 3 % of control; T/C (dose: 24.0 mg/kg/injection, schedule: Q01DX011 (ip), vehicle: carboxymethylcellulose (CMC)): 1 % of control

Q: How did the T/C (dose: 60.0 mg/kg/injection, schedule: Q01DX011 (ip), vehicle: carboxymethylcellulose (CMC)) turn out when CSc1nc(Cl)cc(NC(=O)CCl)n1 was run?
A: Its T/C is 124 % of control.
